System: Peritoneal rat mastocytes
Test: mastocyte degranulation test in vitro (inhibition of compound 48/80-induced histamine granule release)
Format: cell-based
Conditions: rat peritoneal mastocytes incubated with compound 48/80; dose that inhibits histamine granule release by 50%
Description: The compounds of the invention and fenspiride, a prior art product taken as reference substance, were subjected to the mastocyte degranulation test:
Peritoneal rat mastocytes are incubated in vitro in the presence of compound 48/80, which causes histamine granules to be released. The protective effect of the tested compounds is expressed in IC50, that is to say the (molar) dose that inhibits this release by 50%.

Row | Compound | IC50 | Mastocyte degranulation in vitro - IC50
1 | CCCc1c(OCCN2CCC3(CC2)OC(=O)NC3C)ccc(C(C)=O)c1O (centres unmarked) [Example 1f, 8-[2-(2-propyl-3-hydroxy-4-acetylphenoxy)ethyl]-1-oxa-2-oxo-3,8-diaza-4-methyl-spiro[4.5]decane] | 100 µM | 
2 | CCCc1c(OCCCN2CCC3(CC2)CNC(=O)O3)ccc2c(=O)cc(C(=O)OCC)oc12 [Example 1i, 8-[3-(2-ethoxycarbonyl-8-propyl-7-chrom-4-onyloxy)propyl]-1-oxa-2-oxo-3,8-diaza-spiro[4.5]decane] | 100 µM | 
3 | CCCc1c(OCCCN2CCC3(CC2)CN(C(C)=O)C(=O)O3)ccc(C(C)=O)c1OC(C)=O [Example 4, 8-[3-(2-propyl-3-acetoxy-4-acetylphenoxy)propyl]-1-oxa-2-oxo-3,8-diaza-3-acetyl-spiro[4.5]decane] | 720 µM | 
4 | C=CCc1c(OCCCN2CCC3(CC2)CN(C(C)=O)C(=O)O3)ccc(C(C)=O)c1OC(C)=O [Example 4a, 8-[3-(2-allyl-3-acetoxy-4-acetylphenoxy)propyl]-1-oxa-2-oxo-3,8-diaza-3-acetyl-spiro[4.5]decane] | 2500 µM | 
5 | CCCc1c(OCCCCCN2CCC3(CC2)CN(C(C)=O)C(=O)O3)ccc(C(C)=O)c1OC(C)=O [Example 4b, 8-[5-(2-propyl-3-acetoxy-4-acetylphenoxy)pentyl]-1-oxa-2-oxo-3,8-diaza-3-acetyl-spiro[4.5]decane] | 1000 µM | 
6 | CCc1c(OCCCN2CCC3(CC2)CN(C(C)=O)C(=O)O3)ccc(C(C)=O)c1OC(C)=O [Example 4c, 8-[3-(2-ethyl-3-acetoxy-4-acetylphenoxy)propyl]-1-oxa-2-oxo-3,8-diaza-3-acetyl-spiro[4.5]decane] | > 1000 µM | 
7 | CC(=O)Oc1c(C(C)=O)ccc(OCCCN2CCC3(CC2)CN(C(C)=O)C(=O)O3)c1CC(C)C [Example 4d, 8-[3-(2-isobutyl-3-acetoxy-4-acetylphenoxy)propyl]-1-oxa-2-oxo-3,8-diaza-3-acetyl-spiro[4.5]decane] | 730 µM | 
8 | CCCc1c(OCCCN2CCC3(CC2)CNC(=O)O3)ccc(C(C)=O)c1OC(C)=O [Example 6, 8-[3-(2-propyl-3-acetoxy-4-acetylphenoxy)propyl]-1-oxa-2-oxo-3,8-diaza-spiro[4.5]decane] | 1200 µM | 
9 | CCCc1c(OCCCCCN2CCC3(CC2)CNC(=O)O3)ccc(C(C)=O)c1OC(C)=O [Example 6a, 8-[5-(2-propyl-3-acetoxy-4-acetylphenoxy)pentyl]-1-oxa-2-oxo-3,8-diaza-spiro[4.5]decane] | 2000 µM | 
10 | O=C1NCC2(CCN(CCc3ccccc3)CC2)O1 [fenspiride, reference compound] |  | inactive

Continued, values first:

Row | IC50 | Mastocyte degranulation in vitro - IC50 | Compound
11 | 240 µM |  | CCCc1c(OCCCN2CCC3(CC2)CNC(=O)O3)ccc(C(C)=O)c1O [Example 1, 8-[3-(2-propyl-3-hydroxy-4-acetylphenoxy)propyl]-1-oxa-2-oxo-3,8-diaza-spiro[4.5]decane]
12 | 200 µM |  | CCCc1c(OCCN2CCC3(CC2)CNC(=O)O3)ccc(C(C)=O)c1O [Example 1a, 8-[2-(2-propyl-3-hydroxy-4-acetylphenoxy)ethyl]-1-oxa-2-oxo-3,8-diaza-spiro[4.5]decane]
13 | 200 µM |  | CCCc1c(OCCCCN2CCC3(CC2)CNC(=O)O3)ccc(C(C)=O)c1O [Example 1b, 8-[4-(2-propyl-3-hydroxy-4-acetylphenoxy)butyl]-1-oxa-2-oxo-3,8-diaza-spiro[4.5]decane]
14 | 1000 µM |  | CCCc1c(OCC(O)CN2CCC3(CC2)CNC(=O)O3)ccc(C(C)=O)c1O (centres unmarked) [Example 1c, 8-[3-(2-propyl-3-hydroxy-4-acetylphenoxy)-2-hydroxypropyl]-1-oxa-2-oxo-3,8-diaza-spiro[4.5]decane]
15 | 110 µM |  | CCCc1c(OCCCCCN2CCC3(CC2)CNC(=O)O3)ccc(C(C)=O)c1O [Example 1d, 8-[5-(2-propyl-3-hydroxy-4-acetylphenoxy)pentyl]-1-oxa-2-oxo-3,8-diaza-spiro[4.5]decane]
16 | 92 µM |  | CCCc1c(OCCCCCCN2CCC3(CC2)CNC(=O)O3)ccc(C(C)=O)c1O [Example 1e, 8-[6-(2-propyl-3-hydroxy-4-acetylphenoxy)hexyl]-1-oxa-2-oxo-3,8-diaza-spiro[4.5]decane]
17 | 250 µM |  | C=CCc1c(OCCCN2CCC3(CC2)CNC(=O)O3)ccc(C(C)=O)c1O [Example 1h, 8-[3-(2-allyl-3-hydroxy-4-acetylphenoxy)propyl]-1-oxa-2-oxo-3,8-diaza-spiro[4.5]decane]
18 | 100 µM |  | CCCc1c(OCCCN2CCC3(CC2)CNC(=O)O3)ccc2c1OCCC2=O [Example 1j]
19 | 830 µM |  | CCc1c(OCCCN2CCC3(CC2)CNC(=O)O3)ccc(C(C)=O)c1O [Example 1k, 8-[3-(2-ethyl-3-hydroxy-4-acetylphenoxy)propyl]-1-oxa-2-oxo-3,8-diaza-spiro[4.5]decane]
20 | 116 µM |  | CC(=O)c1ccc(OCCCN2CCC3(CC2)CNC(=O)O3)c(CC(C)C)c1O [Example 1l, 8-[3-(2-isobutyl-3-hydroxy-4-acetylphenoxy)propyl]-1-oxa-2-oxo-3,8-diaza-spiro[4.5]decane]
21 | 200 µM |  | CCCc1c(OCCCN2CCC3(CC2)OC(=O)NC3C)ccc(C(C)=O)c1O (centres unmarked) [Example 2, 8-[3-(2-propyl-3-hydroxy-4-acetylphenoxy)propyl]-1-oxa-2-oxo-3,8-diaza-4-methyl-spiro[4.5]decane]
22 | 1000 µM |  | CCCc1c(OCCCN2CCC3(CC2)CNC(=O)O3)ccc2c(=O)cc(C(=O)O)oc12 [Example 3, 8-[3-(2-carboxy-8-propyl-7-chrom-4-onyloxy)propyl]-1-oxa-2-oxo-3,8-diaza-spiro[4.5]decane]
23 | 750 µM |  | C=CCc1c(OCCCN2CCC3(CC2)CN(C(C)=O)C(=O)O3)ccc(C(C)=O)c1O [Example 5, 8-[3-(2-allyl-3-hydroxy-4-acetylphenoxy)propyl]-1-oxa-2-oxo-3,8-diaza-3-acetyl-spiro[4.5]decane]

Reference: US4824836A, “Spiro (4,5) decone compounds” (Adir et Compagnie, priority 1987, dated 1989)
